Source: US10065990B2, “Cyclic peptide compound, and preparation method, pharmaceutical composition and use thereof” (HANGZHOU GUANYU BIO-MEDICAL CO., LTD, priority 2013, dated 2018)
Like-named read-outs stand apart in the source and are kept apart here.

Assays:
[1] = tested on: MCF-7 (human breast cancer cells); assay: MTT cancer cell growth inhibition; assay type: cell-based; details: Homo sapiens, MCF7, 72 h, 72 hours incubation, read-out: GI50 MCF
Outline: (§1)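 GI50 values come from viability measured by MTT reduction at 570 nm. Plated overnight at 1500 cells per well, cultures received drug in three parallel wells across 10^−5–10^−10 M final and were incubated 72 h at 37° C. under 5% CO2 before MTT for 4 h.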

[2] = tested on: BGC-823 (human gastric cancer cells); assay: MTT cancer cell growth inhibition; assay type: cell-based; details: Homo sapiens, BGC-823, 72 h, MTT, 72 hours incubation, read-out: GI50 BG
Outline: as §1

[3] = tested on: MDA-MB-231 (breast cancer cells); assay: MTT cancer cell growth inhibition; assay type: cell-based; details: Homo sapiens, MDA-MB-231, 72 h, read-out: GI50 MDA-MB-231, MTT, 72 hours incubation, MDA-MB-231 cells
Outline: as §1

[4] = tested on: KBM-5 (human chronic myelogenous leukemia); assay: MTT cancer cell growth inhibition; assay type: cell-based; details: Homo sapiens, KBM5, 72 h, MTT, 72 hours incubation, KBM-5 cells; read-out: GI50 KBM-5
Outline: as §1

[5] = tested on: Hela (human cervical cancer cells); assay: MTT cancer cell growth inhibition; assay type: cell-based; details: Homo sapiens, HeLa, 72 h, MTT, 72 hours incubation, read-out: GI50 Hela
Outline: as §1

[6] = tested on: H1975 (non-small cell lung adenocarcinoma); assay: MTT cancer cell growth inhibition; assay type: cell-based; details: Homo sapiens, NCI-H1975, 72 h, MTT, 72 hours incubation, H1975 cells; read-out: GI50 H1975
Outline: as §1

[7] = tested on: A549 (human lung cancer cells); assay: MTT cancer cell growth inhibition; assay type: cell-based; details: Homo sapiens, A549, 72 h, MTT, 72 hours incubation, read-out: GI50 A54
Outline: as §1

[8] = tested on: K562 (human leukemia cells); assay: MTT cancer cell growth inhibition; assay type: cell-based; details: Homo sapiens, K562, 72 h, MTT, 72 hours incubation, K562 cells; read-out: GI50 K562
Outline: as §1

[9] = tested on: MOLT-4 (human acute lymphoblastic leukemia cells); assay: MTT cancer cell growth inhibition; assay type: cell-based; details: Homo sapiens, MOLT-4, 72 h, MTT, 72 hours incubation, read-out: GI50 Mol
Outline: as §1

[10] = tested on: HCC827 (human non-small cell lung cancer cells); assay: MTT cancer cell growth inhibition; assay type: cell-based; details: Homo sapiens, HCC827, 72 h, MTT, 72 hours incubation, HCC827 cells; read-out: GI50 HCC827
Outline: as §1

[11] = tested on: KBM5-T315I (human chronic myelogenous leukemia); assay: MTT cancer cell growth inhibition; assay type: cell-based; details: Homo sapiens, 72 h, MTT, 72 hours incubation, KBM5-T315I cells; read-out: GI50 KBM5-T315I
Outline: as §1

[12] = tested on: HT1080 (human fibrosarcoma cells); assay: MTT cancer cell growth inhibition; assay type: cell-based; details: Homo sapiens, HT-1080, 72 h, MTT, 72 hours incubation, read-out: GI50 HT1
Outline: as §1

[13] = tested on: N-87 (human gastric cancer cells); assay: MTT cancer cell growth inhibition; assay type: cell-based; details: Homo sapiens, 72 h, MTT, 72 hours incubation, N-87 cells; read-out: GI50 N-87
Outline: as §1

[14] = tested on: lncap (prostate cancer cells); assay: MTT cancer cell growth inhibition; assay type: cell-based; details: Homo sapiens, LNCaP, 72 h, MTT, 72 hours incubation, read-out: GI50 lnca
Outline: as §1

[15] = tested on: PANC-1 (Pac-1, human pancreatic cancer cells); assay: MTT cancer cell growth inhibition; assay type: cell-based; details: Homo sapiens, PANC-1, 72 h, MTT, 72 hours incubation, read-out: GI50 PAN
Outline: as §1

[16] = tested on: SGC-7901 (human gastric cancer cells); assay: MTT cancer cell growth inhibition; assay type: cell-based; details: Homo sapiens, SGC-7901, 72 h, MTT, 72 hours incubation, SGC-7901 cells; read-out: GI50 SGC-7901
Outline: as §1

[17] = tested on: Bel-7402 (human hepatoma cells); assay: MTT cancer cell growth inhibition; assay type: cell-based; details: Homo sapiens, Bel-7402, 72 h, MTT, 72 hours incubation, Bel-7402 cells; read-out: GI50 Bel-7402
Outline: as §1

[18] = tested on: U937 (human leukemia cells); assay: MTT cancer cell growth inhibition; assay type: cell-based; details: Homo sapiens, U-937, 72 h, MTT, 72 hours incubation, read-out: GI50 U93
Outline: as §1

[19] = tested on: DU145 (human prostate cancer cells); assay: MTT cancer cell growth inhibition; assay type: cell-based; details: Homo sapiens, DU-145, 72 h, MTT, 72 hours incubation, read-out: GI50 Du1
Outline: as §1

[20] = tested on: Huh-7 (human hepatoma cells); assay: MTT cancer cell growth inhibition; assay type: cell-based; details: Homo sapiens, Huh-7, 72 h, MTT, 72 hours incubation, Huh-7 cells; read-out: GI50 Huh-7
Outline: as §1

HDAC7 = target: T1, HDAC7 (Homo sapiens, UniProt Q8WUI4); assay: HDAC biochemical activity measurement (fluorescent substrate deacetylation);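 for all read-outs here: fluorogenic deacetylation assay using acetyl-lysine substrate at 20 µM, enzyme and compound incubated 30 min at 37 °C, then developer added, fluorescence read at 360/460 nm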; details: for IC50 HDAC7: 37° C. 30 minutes
T1 sequence (Q8WUI4 1-952): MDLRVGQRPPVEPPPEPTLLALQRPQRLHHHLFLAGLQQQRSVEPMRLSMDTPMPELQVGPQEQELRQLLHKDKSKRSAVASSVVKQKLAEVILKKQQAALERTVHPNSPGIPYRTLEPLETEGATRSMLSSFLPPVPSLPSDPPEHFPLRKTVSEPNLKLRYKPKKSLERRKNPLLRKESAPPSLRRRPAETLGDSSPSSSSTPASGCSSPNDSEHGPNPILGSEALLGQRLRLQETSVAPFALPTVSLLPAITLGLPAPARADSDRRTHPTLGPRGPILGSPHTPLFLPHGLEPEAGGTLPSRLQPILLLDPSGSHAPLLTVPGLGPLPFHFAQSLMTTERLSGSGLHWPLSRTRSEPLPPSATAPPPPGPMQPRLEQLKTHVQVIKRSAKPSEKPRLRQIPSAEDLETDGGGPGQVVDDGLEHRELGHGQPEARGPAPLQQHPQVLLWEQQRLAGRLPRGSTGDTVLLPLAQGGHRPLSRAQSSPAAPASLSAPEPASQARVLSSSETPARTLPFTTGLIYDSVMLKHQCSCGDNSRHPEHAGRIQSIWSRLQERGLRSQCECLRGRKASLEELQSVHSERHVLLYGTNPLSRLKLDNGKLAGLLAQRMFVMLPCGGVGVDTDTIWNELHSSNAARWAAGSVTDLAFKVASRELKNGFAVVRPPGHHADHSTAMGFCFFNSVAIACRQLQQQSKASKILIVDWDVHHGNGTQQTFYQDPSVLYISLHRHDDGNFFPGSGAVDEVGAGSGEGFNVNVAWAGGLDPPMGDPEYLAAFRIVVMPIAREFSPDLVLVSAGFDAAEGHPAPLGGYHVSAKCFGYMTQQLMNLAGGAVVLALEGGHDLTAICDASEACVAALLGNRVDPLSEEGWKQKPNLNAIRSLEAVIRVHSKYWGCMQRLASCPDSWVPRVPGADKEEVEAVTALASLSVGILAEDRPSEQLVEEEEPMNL

Compound	GI50 [1]	GI50 [2]	GI50 [3]	GI50 [4]	GI50 [5]	GI50 [6]	GI50 [7]	GI50 [8]	GI50 [9]	GI50 [10]	GI50 [11]	GI50 [12]	GI50 [13]	GI50 [14]	GI50 [15]	GI50 [16]	GI50 [17]	GI50 [18]	GI50 [19]	GI50 [20]	further results
C/C=C1\NC(=O)c2ccc(F)c(n2)CNC(=O)C[C@@H](/C=C/CCS)OC(=O)[C@H](CC)NC1=O [Compound 111]	20 nM	30 nM	38 nM	53 nM	80 nM	27 nM	50 nM	37 nM	20 nM	57 nM	35 nM	80 nM	28 nM	20 nM	80 nM	73 nM	36 nM	50 nM	60 nM	38 nM	IC50 HDAC7 (HDAC7): no activity
C/C=C1\NC(=O)c2ccc(F)c(n2)CNC(=O)C[C@@H](/C=C/CCSC(=O)CCCCCCC)OC(=O)[C@H](CC)NC1=O [Example 56]	60 nM	40 nM	37 nM	81 nM	80 nM	53 nM	50 nM	43 nM	30 nM	93 nM	69 nM	90 nM	42 nM	30 nM	90 nM	53 nM	93 nM	50 nM	40 nM	37 nM	IC50 HDAC7 (HDAC7): no activity
C/C=C1\NC(=O)c2cc(SCC)cc(n2)CNC(=O)C[C@@H](/C=C/CCSC(=O)CCCCCC)OC(=O)[C@H](C(C)C)NC1=O [Compound 251]	–	–	38 nM	66 nM	–	63 nM	–	35 nM	–	53 nM	81 nM	–	36 nM	–	–	49 nM	42 nM	–	–	55 nM	GI50 ([1]; MCF-7 cells): 40 nM; GI50 ([2]; BGC-823 cells): 30 nM; GI50 ([5]; Hela cells): 20 nM; GI50 ([7]; A549 cells): 60 nM; GI50 ([9]; MOLT-4 cells): 70 nM; GI50 ([12]; HT1080 cells): 20 nM; GI50 ([14]; lncap cells): 90 nM; GI50 ([15]; PANC-1 cells): 50 nM; GI50 ([18]; U937 cells): 30 nM; GI50 ([19]; DU145 cells): 20 nM; IC50 (μM) HDAC7 (HDAC7): no activity
CC(C)=C1NC(=O)c2nc(ccc2F)CNC(=O)C[C@@H](/C=C/CCS)OC(=O)[C@H](C(C)C)NC1=O [Compound 136]	50 nM	70 nM	58 nM	9 nM	80 nM	35 nM	40 nM	46 nM	20 nM	41 nM	35 nM	40 nM	31 nM	30 nM	80 nM	51 nM	22 nM	30 nM	10 nM	36 nM	IC50 HDAC7 (HDAC7): no activity
C/C=C1\NC(=O)c2nc(ccc2F)CNC(=O)C[C@@H](/C=C/CCS)OC(=O)[C@H](Cc2ccccc2)NC1=O [Compound 115]	70 nM	60 nM	36 nM	53 nM	80 nM	23 nM	40 nM	41 nM	80 nM	41 nM	28 nM	80 nM	45 nM	80 nM	60 nM	23 nM	36 nM	40 nM	70 nM	99 nM	IC50 HDAC7 (HDAC7): no activity
C/C=C1\NC(=O)c2cccc(n2)CNC(=O)C[C@@H](/C=C/CCS)OC(=O)[C@H](C)NC1=O [Example 29]	1210 nM	90 nM	87 nM	43 nM	910 nM	63 nM	270 nM	34 nM	70 nM	29 nM	37 nM	60 nM	33 nM	50 nM	80 nM	29 nM	91 nM	450 nM	70 nM	77 nM	IC50 HDAC7 (HDAC7): no activity
CC(C)=C1NC(=O)c2cccc(n2)CNC(=O)C[C@@H](/C=C/CCS)OC(=O)[C@H](C(C)C)NC1=O [Compound 135]	50 nM	50 nM	41 nM	11 nM	70 nM	79 nM	90 nM	33 nM	90 nM	93 nM	51 nM	90 nM	26 nM	70 nM	50 nM	44 nM	39 nM	90 nM	50 nM	87 nM	IC50 HDAC7 (HDAC7): no activity
